Test results taken from ChEMBL document CHEMBL4422619, “Continued exploration of 1,2,4-oxadiazole periphery for carbonic anhydrase-targeting primary arene sulfonamides: Discovery of subnanomolar inhibitors of membrane-bound hCA IX isoform that selectively kill cancer cells in hypoxic environment” (Eur J Med Chem, 2019).
The source made the active and inactive calls. The calls are words filed in the database; no cut-off is given here.

Columns and labels:
[1] = molecular target: Carbonic anhydrase 2 (Homo sapiens, UniProt P00918); test: Inhibition of human carbonic anhydrase 2 assessed as reduction in CO2 hydration after 15 mins by phenol red staining-based stopped flow assay
[2] = molecular target: Carbonic anhydrase 9 (Homo sapiens, UniProt Q16790)
Description: Inhibition of human carbonic anhydrase 9 assessed as reduction in CO2 hydration after 15 mins by phenol red staining-based stopped flow assay

[3] = molecular target: Carbonic anhydrase 12 (Homo sapiens, UniProt O43570);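 further: Stopped-flow CO2 hydration assay with phenol red indicator, 15 min, measuring inhibition of human CA XII enzymatic activity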
Description: Inhibition of human carbonic anhydrase 12 assessed as reduction in CO2 hydration after 15 mins by phenol red staining-based stopped flow assay

[4] = molecular target: Carbonic anhydrase 1 (Homo sapiens, UniProt P00915); test: Inhibition of human carbonic anhydrase 1 assessed as reduction in CO2 hydration after 15 mins by phenol red staining-based stopped flow assay
[5] = tested on: SK-MEL-2; test: Antiproliferative activity against human SK-MEL-2 cells at 300 uM after 48 hrs in presence of hypoxic condition by MTT assay; assay type: functional, cell-based
[6] = tested on: PANC-1; test: Antiproliferative activity against human PANC1 cells at 30 to 300 uM after 48 hrs in presence of normoxic condition by MTT assay; assay type: functional, cell-based
[7] = tested on: SK-MEL-2; test: Antiproliferative activity against human SK-MEL-2 cells at 30 uM after 48 hrs in presence of hypoxic condition by MTT assay; assay type: functional, cell-based
[8] = tested on: PANC-1; test: Antiproliferative activity against human PANC1 cells at 30 to 300 uM after 48 hrs in presence of hypoxic condition by MTT assay; assay type: functional, cell-based
[9] = tested on: ARPE-19; test: Antiproliferative activity against human ARPE19 cells at 300 uM after 48 hrs in presence of hypoxic condition by MTT assay; assay type: cell-based; details: arpe-19, 48 h
[10] = tested on: ARPE-19; test: Antiproliferative activity against human ARPE19 cells at 300 uM after 48 hrs in presence of normoxic condition by MTT assay; assay type: cell-based; details: arpe-19, 48 h
[11] = tested on: ARPE-19; test: Antiproliferative activity against human ARPE19 cells at 30 uM after 48 hrs in presence of hypoxic condition by MTT assay; assay type: cell-based; details: arpe-19, 48 h
[12] = tested on: SK-MEL-2; test: Antiproliferative activity against human SK-MEL-2 cells at 30 uM after 48 hrs in presence of normoxic condition by MTT assay; assay type: functional, cell-based
[13] = tested on: SK-MEL-2; test: Antiproliferative activity against human SK-MEL-2 cells at 300 uM after 48 hrs in presence of normoxic condition by MTT assay; assay type: functional, cell-based
[14] = tested on: ARPE-19; test: Antiproliferative activity against human ARPE19 cells at 30 uM after 48 hrs in presence of normoxic condition by MTT assay; assay type: cell-based; details: arpe-19, 48 h
[15] = tested on: ARPE-19; test: Antiproliferative activity against human ARPE19 cells at 30 to 300 uM after 48 hrs in presence of normoxic condition by MTT assay; assay type: cell-based; details: arpe-19, 48 h
[16] = tested on: ARPE-19; test: Antiproliferative activity against human ARPE19 cells at 30 to 300 uM after 48 hrs in presence of hypoxic condition by MTT assay; assay type: cell-based; details: arpe-19, 48 h
[17] = tested on: SK-MEL-2; test: Antiproliferative activity against human SK-MEL-2 cells after 48 hrs in presence of normoxic condition by MTT assay; assay type: functional, cell-based
[18] = tested on: SK-MEL-2; test: Antiproliferative activity against human SK-MEL-2 cells after 48 hrs in presence of hypoxic condition by MTT assay; assay type: functional, cell-based
[19] = tested on: PANC-1; test: Antiproliferative activity against human PANC1 cells after 48 hrs in presence of normoxic condition by MTT assay; assay type: functional, cell-based
[20] = tested on: PANC-1; test: Antiproliferative activity against human PANC1 cells after 48 hrs in presence of hypoxic condition by MTT assay; assay type: functional, cell-based
[21] = tested on: PANC-1; test: Antiproliferative activity against human PANC1 cells at 300 uM after 48 hrs in presence of hypoxic condition by MTT assay; assay type: functional, cell-based
[22] = tested on: PANC-1; test: Antiproliferative activity against human PANC1 cells at 300 uM after 48 hrs in presence of normoxic condition by MTT assay; assay type: functional, cell-based
[23] = tested on: PANC-1; test: Antiproliferative activity against human PANC1 cells at 30 uM after 48 hrs in presence of hypoxic condition by MTT assay; assay type: functional, cell-based
[24] = tested on: PANC-1; test: Antiproliferative activity against human PANC1 cells at 30 uM after 48 hrs in presence of normoxic condition by MTT assay; assay type: functional, cell-based

Sequence of Carbonic anhydrase 12 (O43570 whole entry): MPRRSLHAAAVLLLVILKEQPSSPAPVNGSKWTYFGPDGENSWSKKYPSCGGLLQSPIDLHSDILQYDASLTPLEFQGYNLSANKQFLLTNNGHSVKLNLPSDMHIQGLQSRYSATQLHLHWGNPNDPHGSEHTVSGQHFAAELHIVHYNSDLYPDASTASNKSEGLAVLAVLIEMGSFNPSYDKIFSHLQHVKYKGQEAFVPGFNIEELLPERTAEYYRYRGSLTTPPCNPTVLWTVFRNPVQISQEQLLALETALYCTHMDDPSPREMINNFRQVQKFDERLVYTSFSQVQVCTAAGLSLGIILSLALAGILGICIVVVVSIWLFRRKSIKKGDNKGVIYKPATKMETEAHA
Sequence of Carbonic anhydrase 1 (P00915 whole entry): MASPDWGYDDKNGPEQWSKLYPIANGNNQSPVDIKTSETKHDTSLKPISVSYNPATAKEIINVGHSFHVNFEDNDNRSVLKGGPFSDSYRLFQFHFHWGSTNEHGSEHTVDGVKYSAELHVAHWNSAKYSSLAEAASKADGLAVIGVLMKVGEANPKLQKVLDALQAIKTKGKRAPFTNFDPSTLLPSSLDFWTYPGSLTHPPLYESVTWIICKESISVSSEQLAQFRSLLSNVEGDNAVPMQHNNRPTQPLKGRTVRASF

SMILES | Ki [1] [nM] | Ki [2] [nM] | Ki [3] [nM] | Ki [4] [nM] | further results
Cc1nc(-c2csc(S(N)(=O)=O)c2)no1 | 0.91 | 1.6 | 10.1 | 8.1 | 
COc1cccc(-c2noc(-c3ccc(S(N)(=O)=O)cc3)n2)c1 | 0.48 | 243 |  |  | 
NS(=O)(=O)c1cccc(-c2noc(-c3ccsc3)n2)c1 |  |  |  |  | Activity [5]: inactive; Activity [6]: inactive; Activity [7]: inactive; Activity [8]: inactive; Activity [9]: Toxic; Activity [10]: Toxic; Activity [11]: Non-Toxic; Activity [12]: inactive; Activity [13]: inactive; Activity [14]: Non-Toxic
NS(=O)(=O)c1ccc(-c2nc(-c3ccccc3)no2)cc1 | 1.8 | 6.7 |  |  | 
NS(=O)(=O)c1cccc(-c2noc(C3CC3)n2)c1 |  |  |  |  | Activity [15]: Non-Toxic; Activity [6]: Active; Activity [16]: Non-Toxic; Activity [8]: Active
COc1cccc(-c2noc(-c3csc(S(N)(=O)=O)c3)n2)c1 | 0.82 | 2.2 | 33.6 | 5.4 | Activity [15]: Non-Toxic; Activity [6]: Active; Activity [16]: Non-Toxic; Activity [8]: Active; Activity [17]: inactive; Activity [18]: inactive; Activity [19]: Dose-dependent effect; Activity [20]: Dose-dependent effect
NS(=O)(=O)c1ccc(-c2noc(-c3ccncc3)n2)cc1 | 0.3 | 0.44 | 8.2 | 48 | 
NS(=O)(=O)c1cc(-c2nc(-c3ccccn3)no2)cs1 | 4.3 | 0.39 | 8.5 | 25 | Activity [16]: Non-Toxic; Activity [7]: inactive; Activity [8]: inactive; Activity [19]: Dose-dependent effect; Activity [11]: Non-Toxic; Activity [12]: inactive; Activity [14]: Non-Toxic; Activity [20]: Dose-dependent effect
COc1cc(S(N)(=O)=O)ccc1-c1noc(-c2ccc(C#N)cc2)n1 | 593 | 274 | 32.9 | 779 | 
COc1cc(S(N)(=O)=O)ccc1-c1noc(-c2ccsc2)n1 | 92.1 | 15.9 | 32.1 | 1160 | 
NS(=O)(=O)c1ccc(-c2noc(C3CC3)n2)cc1 | 4.1 | 1.9 | 97.1 | 7.8 | 
NS(=O)(=O)c1cc(-c2noc(C3CC3)n2)cs1 | 0.88 | 2.1 | 9.2 | 53 | 
NS(=O)(=O)c1cc(-c2nc(-c3ccccc3)no2)cs1 | 1.7 | 0.24 | 9.8 | 8.9 | Activity [9]: Toxic; Activity [21]: Active; Activity [10]: Toxic; Activity [22]: Active
COc1cc(S(N)(=O)=O)ccc1-c1noc(-c2cccs2)n1 | 92.1 | 15.9 |  |  | 
COc1ccccc1-c1noc(-c2csc(S(N)(=O)=O)c2)n1 | 0.64 | 0.13 | 8.8 | 16.2 | 
NS(=O)(=O)c1ccc(-c2noc(-c3ccccn3)n2)cc1 | 0.93 | 0.31 | 9.5 | 37.5 | 
COc1ccccc1-c1noc(-c2ccc(S(N)(=O)=O)cc2)n1 | 0.51 | 21.1 |  |  | 
COc1cc(S(N)(=O)=O)ccc1-c1noc(-c2cccnc2)n1 | 271 | 12.1 | 16.8 | 1020 | 
COc1cc(S(N)(=O)=O)ccc1-c1noc(-c2ccccc2)n1 | 8.8 | 13.1 | 33.1 | 459 | 
NS(=O)(=O)c1ccc(-c2noc(-c3cccs3)n2)cc1 | 0.39 | 0.36 | 8.3 | 7.9 | Activity [5]: inactive; Activity [6]: inactive; Activity [7]: inactive; Activity [8]: inactive; Activity [9]: Toxic; Activity [10]: Toxic; Activity [11]: Non-Toxic; Activity [12]: inactive; Activity [13]: inactive; Activity [14]: Non-Toxic
NS(=O)(=O)c1cc(-c2nc(C3CC3)no2)cs1 | 0.75 | 0.089 | 10.3 | 9.3 | Activity [7]: Active; Activity [23]: Active; Activity [11]: Non-Toxic; Activity [12]: Active; Activity [14]: Non-Toxic; Activity [24]: Active
